Source: PMC12528448, “Resistance to CDK7 inhibitors directed by acquired mutation of a conserved residue in cancer cells” (The EMBO Journal, 2025)
Values joined by “and” are separate entries in the source; they are usually repeats but may differ in a detail not shown here. Equal entries are not always repeated.

Legend:
Format in all cases: cell-based, human
LNCaP-CDK7-D97N cells = test: Growth assay (SRB), LNCaP CDK7-D97N knock-in; details: LNCaP CDK7 D99N
Protocol: (§1) To determine the IC50 of drug treatments on growth, cells were seeded in 96-well culture plates. Two days after seeding, the cells were treated with increasing concentrations of drugs and incubated for 4 days. Cell number was determined using the SRB assay (Skehan et al, [1990]), and IC50 values were calculated using non-linear regression curve fitting in GraphPad Prism v10. For all other growth experiments, cells were seeded into 96-well plates, and appropriate drugs were added 2 days after seeding. Cells were then incubated in an IncuCyte Zoom live-cell imager, with cell confluency measured every 6 h. Cell doubling times were determined by non-linear curve fitting (exponential growth equation) in GraphPad Prism v10.
(§2) Alt-R^TM S.p. Cas9 nuclease V3, Alt-R CRISPR-Cas9 crRNA, TracrRNA and the donor templates were obtained from Integrated DNA Technologies. […] Cells were treated with 0.7 µM of Alt-R HDR Enhancer V2 to improve HRD efficiency. Sequences of the CRISPRs in the crRNA and the donor templates are shown in the Reagents and tools table. Donor templates were designed to include non-coding substitutions to aid genome DNA PCR for identifying knock-in events and to facilitate cloning; these substitutions are noted in the Reagents and tools table.

LNCaP cells = test: Growth assay (SRB), LNCaP
Protocol: as §1

MCF7-CDK7-D97N cells = test: Growth assay (SRB), MCF7 CDK7-D97N knock-in; details: for % Growth: MCF7 CDK7 D99N, biological reps
Protocol: as §1, §2

22Rv1 cells = test: Growth assay (SRB), 22Rv1
Protocol: as §1

22Rv1-CDK7-D97N cells = test: Growth assay (SRB), 22Rv1 CDK7-D97N knock-in pool; details: 22Rv1 CDK7 D99N
Protocol: as §1, §2

CC(C)c1cnn2c(NCc3ccccc3-n3cccn3)nc(OC3CCCNC3)nc12 (centres unmarked) [LDC4297]
% Growth (LNCaP-CDK7-D97N cells; Log10 Conc. (nM) 0.09): 106.48% and 87.66% | % Growth (LNCaP-CDK7-D97N cells; Log10 Conc. (nM) 0.69): 87.77% and 86.95% | % Growth (LNCaP-CDK7-D97N cells; Log10 Conc. (nM) 1.29): 78.55% and 76.66% | % Growth (LNCaP-CDK7-D97N cells; Log10 Conc. (nM) 1.89): 68.25% and 64.95% | % Growth (LNCaP-CDK7-D97N cells; Log10 Conc. (nM) 2.49): 52.79% and 47.15% | % Growth (LNCaP-CDK7-D97N cells; Log10 Conc. (nM) 3.10): 25.80% and 16.35% | % Growth (LNCaP-CDK7-D97N cells; Log10 Conc. (nM) 3.70): 4.77% and -4.61% | % Growth (LNCaP-CDK7-D97N cells; Log10 Conc. (nM) 4.30): -8.16% and -14.41% | % Growth (LNCaP-CDK7-D97N cells; Log10 Conc. (nM) -0.52): 106.84% and 93.83% | % Growth (LNCaP cells; Log10 Conc. (nM) 0.09): 103.68% and 97.62% | % Growth (LNCaP cells; Log10 Conc. (nM) 0.69): 77.76% and 65.52% | % Growth (LNCaP cells; Log10 Conc. (nM) 1.29): 48.12% and 34.31% | % Growth (LNCaP cells; Log10 Conc. (nM) 3.10): 4.14% and -5.07% | % Growth (LNCaP cells; Log10 Conc. (nM) 3.70): -12.69% and -19.92% | % Growth (LNCaP cells; Log10 Conc. (nM) 4.30): -12.08% and -21.22% | % Growth (LNCaP cells; Log10 Conc. (nM) -0.52): 92.16% and 87.19% | Resistance (Fold) (MCF7-CDK7-D97N cells; MCF7-CDK7-D97N vs MCF7 WT): 38.8 fold | IC50 (MCF7-CDK7-D97N cells; MCF7-CDK7-D97N, 4 days, SRB): 284 nM | % Growth (MCF7-CDK7-D97N cells; Log10 Conc. (nM) 0.09, 4 days): 97.54% and 102.97% and 111.53% | % Growth (MCF7-CDK7-D97N cells; Log10 Conc. (nM) 0.69, 4 days): 89.88% and 95.95% and 106.23% | % Growth (MCF7-CDK7-D97N cells; Log10 Conc. (nM) 1.29, 4 days): 86.58% and 89.18% and 107.98% | % Growth (MCF7-CDK7-D97N cells; Log10 Conc. (nM) 1.89, 4 days): 78.14% and 75.55% and 98.88% | % Growth (MCF7-CDK7-D97N cells; Log10 Conc. (nM) 2.49, 4 days): 36.43% and 41.92% and 46.72% | % Growth (MCF7-CDK7-D97N cells; Log10 Conc. (nM) 3.10, 4 days): 15.57% and 25.31% and 26.65% | % Growth (MCF7-CDK7-D97N cells; Log10 Conc. (nM) -0.52, 4 days): 94.29% and 106.05% and 120.50% | % Growth (22Rv1 cells; 22Rv1, Log10 Conc. (nM) 0.09): 67.07% and 96.13% | % Growth (22Rv1 cells; 22Rv1, Log10 Conc. (nM) 0.69): 66.51% and 88.13% | % Growth (22Rv1 cells; 22Rv1, Log10 Conc. (nM) 1.29): 42.25% and 51.76% | % Growth (22Rv1 cells; 22Rv1, Log10 Conc. (nM) 1.89): 9.89% and 17.57% | % Growth (22Rv1 cells; 22Rv1, Log10 Conc. (nM) 2.49): 11.47% and 9.07% | % Growth (22Rv1 cells; 22Rv1, Log10 Conc. (nM) 3.10): 2.69% and 4.03% | % Growth (22Rv1 cells; 22Rv1, Log10 Conc. (nM) 3.70): -4.63% and -0.97% | % Growth (22Rv1 cells; 22Rv1, Log10 Conc. (nM) 4.30): -12.52% and -9.59% | % Growth (22Rv1 cells; 22Rv1, Log10 Conc. (nM) -0.52): 95.29% and 95.79% | % Growth (22Rv1 cells; 22Rv1, Log10 Conc. (nM) 0.09, 4 days, biological reps): 97.43% and 97.15% | % Growth (22Rv1 cells; 22Rv1, Log10 Conc. (nM) 0.69, 4 days, biological reps): 91.35% and 89.50% | % Growth (22Rv1 cells; 22Rv1, Log10 Conc. (nM) 1.29, 4 days, biological reps): 69.89% and 67.14% | % Growth (22Rv1 cells; 22Rv1, Log10 Conc. (nM) 1.89, 4 days, biological reps): 34.11% and 32.16% | % Growth (22Rv1 cells; 22Rv1, Log10 Conc. (nM) 2.49, 4 days, biological reps): 25.80% and 22.21% | % Growth (22Rv1 cells; 22Rv1, Log10 Conc. (nM) 3.10, 4 days, biological reps): 19.07% and 18.11% | % Growth (22Rv1 cells; 22Rv1, Log10 Conc. (nM) 3.70, 4 days, biological reps): 12.19% and 10.17% | % Growth (22Rv1 cells; 22Rv1, Log10 Conc. (nM) 4.30, 4 days, biological reps): -1.74% and -5.36% | % Growth (22Rv1 cells; 22Rv1, Log10 Conc. (nM) -0.52, 4 days, biological reps): 96.00% and 93.75% | % Growth (22Rv1-CDK7-D97N cells; Log10 Conc. (nM) 0.09): 99.08% and 97.65% | % Growth (22Rv1-CDK7-D97N cells; Log10 Conc. (nM) 0.69): 98.24% and 92.35% | % Growth (22Rv1-CDK7-D97N cells; Log10 Conc. (nM) 1.29): 97.25% and 79.61% | % Growth (22Rv1-CDK7-D97N cells; Log10 Conc. (nM) 2.49): 79.12% and 58.88% | % Growth (22Rv1-CDK7-D97N cells; Log10 Conc. (nM) 3.10): 40.19% and 24.40% | % Growth (22Rv1-CDK7-D97N cells; Log10 Conc. (nM) 4.30): -8.93% and -12.96% | % Growth (22Rv1-CDK7-D97N cells; Log10 Conc. (nM) -0.52): 101.69% and 97.12%
